According to ChEMBL document CHEMBL3880442, “NHE3-binding compounds and methods for inhibiting phosphate transport” (2014):

Assays:
Rattus norvegicus [1] = test: Effect on phosphate level in urine in Sprague-Dawley rat at 0.03 mg/kg administered via oral gavage measured after 16 hrs by gravimetric analysis relative to vehicle-treated control; format: functional
Rattus norvegicus [2] = test: Effect on sodium level in urine in Sprague-Dawley rat at 2 mg/kg administered via oral gavage measured after 16 hrs by gravimetric analysis relative to vehicle-treated control; format: functional
Rattus norvegicus [3] = test: Effect on phosphate level in urine in Sprague-Dawley rat at 2 mg/kg administered via oral gavage measured after 16 hrs by gravimetric analysis relative to vehicle-treated control; format: functional
Rattus norvegicus [4] = test: Effect on sodium level in urine in Sprague-Dawley rat at 1 mg/kg administered via oral gavage measured after 16 hrs by gravimetric analysis relative to vehicle-treated control; format: functional
[5] = Toxicity in Sprague-Dawley rat model of uremia-associated vascular calcification assessed as change in body weight in presence of calcitriol; conditions: in vivo

## CN1Cc2c(Cl)cc(Cl)cc2[C@H](c2cccc(S(=O)(=O)NCCOCCOCCNC(=O)NCCCCNC(=O)NCCOCCOCCNS(=O)(=O)c3cccc([C@@H]4CN(C)Cc5c(Cl)cc(Cl)cc54)c3)c2)C1 [TENAPANOR]
Rattus norvegicus [1]
  Activity: 80%

## CN1Cc2c(Cl)cc(Cl)cc2[C@H](c2cccc(S(=O)(=O)NCCOCCOCCNC(=O)CCC(CCC(=O)NCCOCCOCCNS(=O)(=O)c3cccc([C@@H]4CN(C)Cc5c(Cl)cc(Cl)cc54)c3)(CCC(=O)NCCOCCOCCNS(=O)(=O)c3cccc([C@@H]4CN(C)Cc5c(Cl)cc(Cl)cc54)c3)NC(=O)NCP(=O)(O)O)c2)C1
Rattus norvegicus [2]
  Activity: 130%
Rattus norvegicus [3]
  Activity: 50%

## CN1Cc2c(Cl)cc(Cl)cc2[C@H](c2cccc(S(=O)(=O)NCCOCCOCCNC(=O)NCCCCNC(=O)NCCOCCOCCNS(=O)(=O)c3cccc([C@@H]4CN(C)Cc5c(Cl)cc(Cl)cc54)c3)c2)C1.Cl.Cl [TENAPANOR HYDROCHLORIDE]
Rattus norvegicus [4]
  Activity: 11%
[5]
  Activity: Non-Toxic
